EP3153160A1, “USE OF XANTHOPHYLLS FOR THE TREATMENT OF CANCERS” (Lu, Chuen Wei, priority 2015, dated 2017)

Tests used:
Format in all cases: cell-based
M059J = M059J cell growth, cell counting; conditions: 100, 200 or 400 µM astaxanthin for 24 hours or 48 hours, cell numbers counted, vs DMSO; Figure 7
Description: (§1) Human U87MG (ATCC, ATCC® HTB-14™) cell line was grown in DMEM medium supplemented with 10% fetal bovine serum at 37°C in a humidified atmosphere at 5% CO2. M059K (ATCC, ATCC® CRL-2365™) and M059J (ATCC, ATCC® CRL-2366™) cell lines were grown in Dulbecco's modified Eagle medium (DMEM)-F12 supplemented with 10% fetal bovine serum at 37°C in a humidified atmosphere at 5% CO2.
(§2) Astaxanthin was dissolved in dimethyl sulfoxide (DMSO) at concentration of 20 mM as stock solution.
(§3) The U87MG, M059K, and M059J cell lines were treated with DMSO or 100, 200 or 400 µM of astaxanthin for 24 hours or 48 hours and cell numbers were counted.

M059K = M059K cell growth, cell counting; conditions: 100, 200 or 400 µM astaxanthin for 24 hours or 48 hours, cell numbers counted, vs DMSO; Figure 6
Description: as §1, §2, §3

Human U87MG [1] = experiment: U87MG cell growth, cell counting; conditions: 100, 200 or 400 µM astaxanthin for 24 hours or 48 hours, cell numbers counted, vs DMSO; Figure 4
Description: as §1, §2, §3

[2] = tested on: Mouse adrenocortical Y1 cell line; experiment: Y1 cell growth, cell counting; conditions: 40 µM astaxanthin, 1, 2 or 3 days of treatment, compared with control (DMSO treated) group; Figures 1 and 2
Description: (§4) Mouse adrenocortical Y1 cell line (ATCC, ATCC® CCL-79™) was grown in Dulbecco's modified Eagle medium (DMEM)-F12 supplemented with 10% fetal bovine serum at 37°C in a humidified atmosphere at 5% CO2.
(§5) Astaxanthin (Model NO: ATP-9601A; Yuan Yu Bio-Tech (Taiwan), Co., Ltd) was dissolved in dimethyl sulfoxide (DMSO) at concentration of 20 mM as stock solution.
(§6) The Y1 cells were incubated with DMSO or 40 µM of astaxanthin for 1, 2 or 3 days before analysis.

Human U2OS = experiment: U2OS cell growth, cell counting; conditions: 100, 200 or 400 µM astaxanthin for 72 hours, cell numbers counted, vs DMSO; Figure 8
Description: Human U2OS (ATCC, ATCC® HTB-96™) cell line was grown in DMEM medium supplemented with 10% fetal bovine serum at 37°C in a humidified atmosphere at 5% CO2.
as §2
The U2OS cell line was treated with DMSO or 100, 200 or 400 µM of astaxanthin for 72 hours and cell numbers were counted.

Human U87MG [3] = experiment: MTT assay of U87MG cell viability; conditions: DMSO or different concentrations of astaxanthin, Figures 5A and 5B
Description: (§7) Cells were washed with PBS after the treatment, followed by addition of 1 ml MTT (3-(4,5-cimethylthiazol-2-yl)-2,5-diphenyl tetrazolium bromide) solution (2 mg/ml in PBS) in each well. After incubation for 3 hours at 37°C, 2 ml of DMSO was added and cells were incubated in the dark for 30 minutes. Absorbance was measured at the wavelength of 570 nm (OD570).
as §1, §2, §3

[4] = tested on: Mouse adrenocortical Y1 cell line; experiment: MTT assay of Y1 cell viability; conditions: Y1 cells, 40 µM astaxanthin for 48 hours, compared with DMSO treated group, Fig. 3
Description: as §4, §5, §6, §7

## CC1=C(/C=C/C(C)=C/C=C/C(C)=C/C=C/C=C(C)/C=C/C=C(C)/C=C/C2=C(C)C(=O)C(O)CC2(C)C)C(C)(C)CC(O)C1=O (stereo not shown) [astaxanthin, Astaxanthin]
M059J
  M059J cell growth: inhibited
M059K
  M059K cell growth: inhibited
Human U87MG [1]
  U87MG cell growth: inhibited U87MG cell growth in a dose-dependent and time-dependent manner
[2]
  number of Y1 cells: reduced
Human U2OS
  U2OS cell growth: inhibited U2OS cell growth in a dose-dependent manner
Human U87MG [3]
  viability of U87MG cells: reduced
[4]
  OD570: reduced
